Laboratory results reported in patent US12404239B2, “Modulators of BCL6 as ligand directed degraders” (Celgene Corporation, priority 2022, dated 2025).

Biological target: T1, BCL6 (Homo sapiens, UniProt P41182)
T1 construct: HiBiT-tag knocked into endogenous BCL6 locus using CRISPR; endogenous in cells; host or cells: DHL-4_BCL6_HiBiT cells (CRISPR knock-in)
Assay: BCL6_HiBiT degradation assay (2 h)
Type: cell-based
Conditions: DHL-4_BCL6_HiBiT cells, read-out: YCon (% remaining maximal effect)
Method in brief: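 DHL-4 cells carrying CRISPR HiBiT knock-in at endogenous BCL6, treated 2 h at 37 °C with 10-point 3-fold dilutions from 1-10 μM. BCL6 level read by Nano-Glo HiBiT lytic luminescence normalized to DMSO; four-parameter fit gives degradation EC50 and Yconstant (% remaining at maximal effect).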

SMILES | Percent BCL6 remaining at maximal degradation (Ycon) [%]
CN1C(=O)Cc2cc(Nc3nc(NC4CCN(c5ccc6c(N7CCC(=O)NC7=O)nn(C)c6c5)CC4)ncc3Cl)ccc21 [Example 133, 1-(6-(4-((5-chloro-4-((1-methyl-2-oxoindolin-5-yl)amino)pyrimidin-2-yl)amino)piperidin-1-yl)-1-methyl-1H-indazol-3-yl)dihydropyrimidine-2,4(1H,3H)-dione] | > 60
C[C@@H]1CN(c2ncc(Cl)c(Nc3ccc4c(c3)CC(=O)N4C)n2)C[C@@H](C)N1c1ccc2c([C@H]3CCC(=O)NC3=O)nn(C)c2c1 (single isomer, unassigned) [Example 79] | 20 to 60
C[C@@H]1CN(c2ncc(Cl)c(Nc3cc4c(cc3F)N(C)C(=O)C4)n2)CC[C@H]1Nc1ccc2c([C@H]3CCC(=O)NC3=O)nn(C)c2c1 (single isomer, unassigned) [Example 93] | < 20
C[C@@H]1CN(c2ncc(Cl)c(Nc3cc4c(cc3F)N(C)C(=O)C4)n2)CC[C@H]1Nc1ccc2c([C@@H]3CCC(=O)NC3=O)nn(C)c2c1 (single isomer, unassigned) [Example 94] | < 20
CN1C(=O)Cc2cc(Nc3nc(N4CC[C@@H](Nc5ccc6c(C7CCC(=O)NC7=O)nn(C)c6c5)[C@H](O)C4)ncc3Cl)ccc21 (stereo partly drawn) [Example 33, 3-(6-(((3R,4R)-1-(5-chloro-4-((1-methyl-2-oxoindolin-5-yl)amino)pyrimidin-2-yl)-3-hydroxypiperidin-4-yl)amino)-1-methyl-1H-indazol-3-yl)piperidine-2,6-dione] | < 20
CN1C(=O)Cc2cc(Nc3nc(NC4CCN(c5ccc6c(C7CCC(=O)NC7=O)nn(C)c6c5)CC4(F)F)ncc3Cl)ccc21 (stereo not shown) [Example 68, 3-(6-(4-((5-chloro-4-((1-methyl-2-oxoindolin-5-yl)amino)pyrimidin-2-yl)amino)-3,3-difluoropiperidin-1-yl)-1-methyl-1H-indazol-3-yl)piperidine-2,6-dione] | 20 to 60
COCCN1C(=O)Cc2cc(Nc3nc(N4CC[C@@H](Nc5ccc6c(C7CCC(=O)NC7=O)nn(C)c6c5)[C@H](C)C4)ncc3Cl)ccc21 (stereo partly drawn) [Example 75, 3-(6-(((3R,4R)-1-(5-chloro-4-((1-(2-methoxyethyl)-2-oxoindolin-5-yl)amino)pyrimidin-2-yl)-3-methylpiperidin-4-yl)amino)-1-methyl-1H-indazol-3-yl)piperidine-2,6-dione] | < 20
C[C@H]1C[C@H](Nc2ccc3c([C@@H]4CCC(=O)NC4=O)nn(C)c3c2)CCN1c1ncc(Cl)c(Nc2ccc3c(c2)CC(=O)N3C)n1 (single isomer, unassigned) [Example 83] | 20 to 60
CN1C(=O)Cc2cc(Nc3nc(N4CCC(Nc5ccc6c(N7CCC(=O)NC7=O)nn(C)c6c5)CC4)ncc3C#N)ccc21 [Example 138, 2-(4-((3-(2,4-dioxotetrahydropyrimidin-1(2H)-yl)-1-methyl-1H-indazol-6-yl)amino)piperidin-1-yl)-4-((1-methyl-2-oxoindolin-5-yl)amino)pyrimidine-5-carbonitrile] | > 60
C[C@@H]1CN(c2ncc(Cl)c(Nc3ccc4c(c3)CC(=O)N4CC(C)(C)F)n2)CC[C@H]1Nc1ccc2c(C3CCC(=O)NC3=O)nn(C)c2c1 (stereo partly drawn) [Example 121, 3-(6-(((3R,4R)-1-(5-chloro-4-((1-(2-fluoro-2-methylpropyl)-2-oxoindolin-5-yl)amino)pyrimidin-2-yl)-3-methylpiperidin-4-yl)amino)-1-methyl-1H-indazol-3-yl)piperidine-2,6-dione] | < 20
CN1C(=O)Cc2cc(Nc3nc(N4CC[C@H](Nc5ccc6c(C7CCC(=O)NC7=O)nn(C)c6c5)C(F)(F)C4)ncc3Cl)ccc21 (stereo partly drawn) [Example 67, 3-(6-(((S)-1-(5-chloro-4-((1-methyl-2-oxoindolin-5-yl)amino)pyrimidin-2-yl)-3,3-difluoropiperidin-4-yl)amino)-1-methyl-1H-indazol-3-yl)piperidine-2,6-dione] | 20 to 60
CN(c1ccc2c(C3CCC(=O)NC3=O)nn(C)c2c1)C1CCN(c2ncc(Cl)c(Nc3ccc4c(c3)N(CCC(C)(C)O)C(=O)C4)n2)CC1 (stereo not shown) [Example 10, 3-(6-((1-(5-chloro-4-((1-(3-hydroxy-3-methylbutyl)-2-oxoindolin-6-yl)amino)pyrimidin-2-yl)piperidin-4-yl)(methyl)amino)-1-methyl-1H-indazol-3-yl)piperidine-2,6-dione] | 20 to 60
C[C@@H]1CN(c2ncc(Cl)c(Nc3ccc4c(c3)CC(=O)N4)n2)CC[C@H]1Nc1ccc2c(C3CCC(=O)NC3=O)nn(C)c2c1 (stereo partly drawn) [Example 114, 3-(6-(((3R,4R)-1-(5-chloro-4-((2-oxoindolin-5-yl)amino)pyrimidin-2-yl)-3-methylpiperidin-4-yl)amino)-1-methyl-1H-indazol-3-yl)piperidine-2,6-dione] | < 20
C[C@@H]1C[C@@H](N(C)c2ccc3c(C4CCC(=O)NC4=O)nn(C)c3c2)CCN1c1ncc(Cl)c(Nc2ccc3c(c2)CC(=O)N3C)n1 (stereo partly drawn) [Example 25, 3-(6-(((2R,4S)-1-(5-chloro-4-((1-methyl-2-oxoindolin-5-yl)amino)pyrimidin-2-yl)-2-methylpiperidin-4-yl)(methyl)amino)-1-methyl-1H-indazol-3-yl)piperidine-2,6-dione] | > 60
CN1C(=O)Cc2cc(Nc3nc(N(C)[C@@H]4CCN(c5ccc6c(C7CCC(=O)NC7=O)nn(C)c6c5)C(=O)C4)ncc3Cl)ccc21 (single isomer, unassigned) [Example 129] | < 20
CN1C(=O)Cc2cc(Nc3nc(N(C)[C@H]4C[C@H]5CC[C@@H](C4)N5c4ccc5c(C6CCC(=O)NC6=O)nn(C)c5c4)ncc3Cl)ccc21 (stereo partly drawn) [Example 16, 3-(6-((1R,3r,5S)-3-((5-chloro-4-((1-methyl-2-oxoindolin-yl)amino)pyrimidin-2-yl)(methyl)amino)-8-azabicyclo[3.2.1]octan-8-yl)-1-methyl-1H-indazol-3-yl)piperidine-2,6-dione] | 20 to 60
C[C@H]1CN(c2ncc(Cl)c(Nc3ccc4c(c3)CC(=O)N4C)n2)CC[C@@H]1Nc1ccc2c(C3CCC(=O)NC3=O)nn(C)c2c1 (stereo partly drawn) [Example 14, 3-(6-(((3S,4S)-1-(5-chloro-4-((1-methyl-2-oxoindolin-5-yl)amino)pyrimidin-2-yl)-3-methylpiperidin-4-yl)amino)-1-methyl-1H-indazol-3-yl)piperidine-2,6-dione] | > 60
C[C@@H]1CN(c2ncc(Cl)c(Nc3ccc4c(c3)CC(=O)N4CC(C)(F)F)n2)CC[C@H]1Nc1ccc2c([C@H]3CCC(=O)NC3=O)nn(C)c2c1 (single isomer, unassigned) [Example 111] | < 20
CC1CN(c2ncc(Cl)c(Nc3ccc4c(c3)CC(=O)N4C)n2)CC(=O)N1c1ccc2c(C3CCC(=O)NC3=O)nn(C)c2c1 (stereo not shown) [Example 5, 3-(6-(4-(5-chloro-4-((1-methyl-2-oxoindolin-5-yl)amino)pyrimidin-2-yl)-2-methyl-6-oxopiperazin-1-yl)-1-methyl-1H-indazol-3-yl)piperidine-2,6-dione] | > 60
